System: SEM cells
Assay: cell viability relative to DMSO control; higher = less cytotoxic
Conditions: 48 h
Procedure, shortened: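 NOMO1 or SEM (500 cells/well) or P12-Ichikawa (1000 cells/well) leukemia cells were adapted for at least four passages in each medium. They were seeded in 1536-well plates (5 μl) and pin-dosed with library compounds in DMSO over an 11-point threefold series, 47 μM to 0.79 nM. CellTiter-Glo One luminescence was read after 48 h at 37°C. Viability is the per-plate percentage relative to DMSO wells, with cell-free wells as background.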

[1] = HPLM + 10% dialyzed FBS, 0.000781 µM
[2] = HPLM + 10% dialyzed FBS, 0.00234 µM
[3] = HPLM + 10% dialyzed FBS, 0.00702 µM
[4] = HPLM + 10% dialyzed FBS, 0.0211 µM
[5] = HPLM + 10% dialyzed FBS, 0.0632 µM
[6] = HPLM + 10% dialyzed FBS, 0.19 µM
[7] = HPLM + 10% dialyzed FBS, 0.569 µM
[8] = HPLM + 10% dialyzed FBS, 1.71 µM
[9] = HPLM + 10% dialyzed FBS, 5.12 µM
[10] = HPLM + 10% dialyzed FBS, 15.4 µM
[11] = HPLM + 10% dialyzed FBS, 46.1 µM
[12] = RPMI 5 mM glucose + 10% FBS, 0.000781 µM
[13] = RPMI 5 mM glucose + 10% FBS, 0.00234 µM
[14] = RPMI 5 mM glucose + 10% FBS, 0.00702 µM
[15] = RPMI 5 mM glucose + 10% FBS, 0.0211 µM
[16] = RPMI 5 mM glucose + 10% FBS, 0.0632 µM
[17] = RPMI 5 mM glucose + 10% FBS, 0.19 µM
[18] = RPMI 5 mM glucose + 10% FBS, 0.569 µM
[19] = RPMI 5 mM glucose + 10% FBS, 1.71 µM
[20] = RPMI 5 mM glucose + 10% FBS, 5.12 µM
[21] = RPMI 5 mM glucose + 10% FBS, 15.4 µM
[22] = RPMI 5 mM glucose + 10% FBS, 46.1 µM
[23] = RPMI 5 mM glucose + 10% dialyzed FBS, 0.000781 µM
[24] = RPMI 5 mM glucose + 10% dialyzed FBS, 0.00234 µM
[25] = RPMI 5 mM glucose + 10% dialyzed FBS, 0.00702 µM
[26] = RPMI 5 mM glucose + 10% dialyzed FBS, 0.0211 µM
[27] = RPMI 5 mM glucose + 10% dialyzed FBS, 0.0632 µM
[28] = RPMI 5 mM glucose + 10% dialyzed FBS, 0.19 µM
[29] = RPMI 5 mM glucose + 10% dialyzed FBS, 0.569 µM
[30] = RPMI 5 mM glucose + 10% dialyzed FBS, 1.71 µM
[31] = RPMI 5 mM glucose + 10% dialyzed FBS, 5.12 µM
[32] = RPMI 5 mM glucose + 10% dialyzed FBS, 15.4 µM
[33] = RPMI 5 mM glucose + 10% dialyzed FBS, 46.1 µM

Compound `Cc1coc2c1C(=O)C(=O)c1c-2ccc2c1CCCC2(C)C` has a cell viability [1] of 112%, a cell viability [2] of 98.6% and a cell viability [3] of 104%. The cell viability [4] was 102%, the cell viability [5] was 96.8% and the cell viability [6] was 97%. The cell viability [7] was 97.1%, the cell viability [8] was 102% and the cell viability [9] was 99.6%. The cell viability [10] was 85.2%, the cell viability [11] was 87.4% and the cell viability [12] was 112%. The cell viability [13] was 108%, the cell viability [14] was 107% and the cell viability [15] was 109%. For the same compound, the cell viability [16] was 101%, the cell viability [17] was 99.6% and the cell viability [18] was 104%. It also gave a cell viability [19] of 95.8%, a cell viability [20] of 97.1% and a cell viability [21] of 79.9%. For the same compound, the cell viability [22] was 80.7%, the cell viability [23] was 96.7% and the cell viability [24] was 99.7%. It also gave a cell viability [25] of 102%, a cell viability [26] of 97.4% and a cell viability [27] of 90.3%. The cell viability [28] was 88%, the cell viability [29] was 82.6% and the cell viability [30] was 76%. The cell viability [31] was 75.1%, the cell viability [32] was 78.4% and the cell viability [33] was 84.3%.

Work on `O=C(CCCN1CCN(c2ccc(F)cc2)CC1)NC1c2ccccc2CSc2ccccc21` (configuration not stated) yielded a cell viability [1] of 111%, a cell viability [2] of 135% and a cell viability [3] of 116%. The cell viability [4] was 126%, the cell viability [5] was 131% and the cell viability [6] was 121%. For the same compound, the cell viability [7] was 33.8%, the cell viability [8] was 126% and the cell viability [9] was 113%. The cell viability [10] was 118%, the cell viability [11] was 89.6% and the cell viability [12] was 128%. For the same compound, the cell viability [13] was 112%, the cell viability [14] was 115% and the cell viability [15] was 115%. The cell viability [16] was 120%, the cell viability [17] was 118% and the cell viability [18] was 51%. The cell viability [19] was 103%, the cell viability [20] was 101% and the cell viability [21] was 92%. It also gave a cell viability [22] of 49.9%, a cell viability [23] of 112% and a cell viability [24] of 122%. The cell viability [25] was 102%, the cell viability [26] was 104% and the cell viability [27] was 123%. It also gave a cell viability [28] of 112%, a cell viability [29] of 40.7% and a cell viability [30] of 113%. The cell viability [31] was 95.3%, the cell viability [32] was 81.2% and the cell viability [33] was 43.6%.

In the case of `C=C[C@H]1CN2CCC1C[C@@H]2C(O)c1ccnc2ccc(OC)cc12` (some centres not stated), the cell viability [1] is reported as 118%, the cell viability [2] is reported as 146% and the cell viability [3] is reported as 116%. It also gave a cell viability [4] of 22.4%, a cell viability [5] of 131% and a cell viability [6] of 115%. It also gave a cell viability [7] of 121%, a cell viability [8] of 111% and a cell viability [9] of 126%. It also gave a cell viability [10] of 113%, a cell viability [11] of 111% and a cell viability [12] of 67.5%. It also gave a cell viability [13] of 77.6%, a cell viability [14] of 104% and a cell viability [15] of 11.3%. It also gave a cell viability [16] of 99.7%, a cell viability [17] of 96.1% and a cell viability [18] of 82%. For the same compound, the cell viability [19] was 77%, the cell viability [20] was 94.6% and the cell viability [21] was 84.6%. The cell viability [22] was 63%, the cell viability [23] was 121% and the cell viability [24] was 123%. It also gave a cell viability [25] of 138%, a cell viability [26] of 23.6% and a cell viability [27] of 129%. For the same compound, the cell viability [28] was 121%, the cell viability [29] was 112% and the cell viability [30] was 127%. For the same compound, the cell viability [31] was 131%, the cell viability [32] was 132% and the cell viability [33] was 97.5%.

`Nc1c2c(nc3ccccc13)CCCC2` gave a cell viability [1] of 92.9%, a cell viability [2] of 104% and a cell viability [3] of 118%. It also gave a cell viability [4] of 109%, a cell viability [5] of 115% and a cell viability [6] of 118%. For the same compound, the cell viability [7] was 101%, the cell viability [8] was 25.6% and the cell viability [9] was 108%. The cell viability [10] was 108%, the cell viability [11] was 86.1% and the cell viability [12] was 121%. It also gave a cell viability [13] of 123%, a cell viability [14] of 122% and a cell viability [15] of 109%. For the same compound, the cell viability [16] was 111%, the cell viability [17] was 112% and the cell viability [18] was 97.3%. For the same compound, the cell viability [19] was 17.5%, the cell viability [20] was 100% and the cell viability [21] was 118%. It also gave a cell viability [22] of 80.5%, a cell viability [23] of 109% and a cell viability [24] of 131%. The cell viability [25] was 123%, the cell viability [26] was 104% and the cell viability [27] was 112%. The cell viability [28] was 123%, the cell viability [29] was 95.7% and the cell viability [30] was 24.7%. It also gave a cell viability [31] of 117%, a cell viability [32] of 104% and a cell viability [33] of 87.6%.

Compound `O=C(O)CCNC(=O)c1ccc(/N=N/c2ccc(O)c(C(=O)O)c2)cc1` has a cell viability [1] of 116%, a cell viability [2] of 108% and a cell viability [3] of 118%. The cell viability [4] was 109%, the cell viability [5] was 106% and the cell viability [6] was 105%. For the same compound, the cell viability [7] was 98.9%, the cell viability [8] was 105% and the cell viability [9] was 103%. The cell viability [10] was 101% and the cell viability [11] was 96.7%.

In the case of `O=C(O)c1cccnc1Nc1cccc(C(F)(F)F)c1`, the cell viability [1] is reported as 92.1%, the cell viability [2] is reported as 105% and the cell viability [3] is reported as 99.1%. For the same compound, the cell viability [4] was 103%, the cell viability [5] was 119% and the cell viability [6] was 117%. For the same compound, the cell viability [7] was 40.9%, the cell viability [8] was 65.2% and the cell viability [9] was 117%. For the same compound, the cell viability [10] was 120%, the cell viability [11] was 111% and the cell viability [12] was 102%. The cell viability [13] was 97.1%, the cell viability [14] was 90.9% and the cell viability [15] was 106%. The cell viability [16] was 108%, the cell viability [17] was 111% and the cell viability [18] was 65.9%. The cell viability [19] was 55.2%, the cell viability [20] was 98.5% and the cell viability [21] was 80.6%. It also gave a cell viability [22] of 75.6%, a cell viability [23] of 105% and a cell viability [24] of 133%. The cell viability [25] was 110%, the cell viability [26] was 106% and the cell viability [27] was 119%. The cell viability [28] was 125%, the cell viability [29] was 59.5% and the cell viability [30] was 54.7%. It also gave a cell viability [31] of 121%, a cell viability [32] of 108% and a cell viability [33] of 107%.

Work on `CN1\C=N/C2=CC=C(NC3=CC(=CC=C3C)NC(=O)C4=CC(=CC=C4)C(C)(C)C#N)C=C2C1=O` yielded a cell viability [1] of 101%, a cell viability [2] of 93.6% and a cell viability [3] of 112%. The cell viability [4] was 117%, the cell viability [5] was 107% and the cell viability [6] was 101%. It also gave a cell viability [7] of 87.4%, a cell viability [8] of 95.5% and a cell viability [9] of 74.8%. For the same compound, the cell viability [10] was 79.4%, the cell viability [11] was 44.1% and the cell viability [12] was 113%. The cell viability [13] was 122%, the cell viability [14] was 107% and the cell viability [15] was 114%. The cell viability [16] was 113%, the cell viability [17] was 105% and the cell viability [18] was 101%. It also gave a cell viability [19] of 96.7%, a cell viability [20] of 87.7% and a cell viability [21] of 84.2%. For the same compound, the cell viability [22] was 31.9%, the cell viability [23] was 93.6% and the cell viability [24] was 97.9%. It also gave a cell viability [25] of 92.4%, a cell viability [26] of 115% and a cell viability [27] of 101%. It also gave a cell viability [28] of 107%, a cell viability [29] of 101% and a cell viability [30] of 102%. For the same compound, the cell viability [31] was 70%, the cell viability [32] was 75.8% and the cell viability [33] was 34.9%.

`N[C@@H]1CONC1=O` gave a cell viability [1] of 99.7%, a cell viability [2] of 100% and a cell viability [3] of 103%. The cell viability [4] was 97.7%, the cell viability [5] was 104% and the cell viability [6] was 109%. It also gave a cell viability [7] of 107%, a cell viability [8] of 98.5% and a cell viability [9] of 104%. It also gave a cell viability [10] of 103%, a cell viability [11] of 118% and a cell viability [12] of 91.3%. It also gave a cell viability [13] of 96%, a cell viability [14] of 84.7% and a cell viability [15] of 93.5%. For the same compound, the cell viability [16] was 86%, the cell viability [17] was 93.3% and the cell viability [18] was 108%. It also gave a cell viability [19] of 94.9%, a cell viability [20] of 89.6% and a cell viability [21] of 92.2%. The cell viability [22] was 92.4%, the cell viability [23] was 91.2% and the cell viability [24] was 81.3%. It also gave a cell viability [25] of 89.7%, a cell viability [26] of 89.2% and a cell viability [27] of 97.8%. For the same compound, the cell viability [28] was 87.4%, the cell viability [29] was 101% and the cell viability [30] was 93.7%. The cell viability [31] was 81.6%, the cell viability [32] was 101% and the cell viability [33] was 80.6%.

Source: the supplement of paper PMC11451515
